Assay results: patent US20080234304A1, “N3-Pyridyl-Thiamine And Its Use In Cancer Treatments” (AVEO PHARMACEUTICALS, INC., priority 2004, published 2008)
“Also recorded” adds a separate entry of the source.

Key:
HCT-116 Luc+ tumors = assay: mouse xenograft model, tumor growth; assay type: in vivo; conditions: 200 mg/kg/day, twice daily, ip; Balb C nude mice
Description: (§1) A mouse xenograft model was used to evaluate the efficacy of N3PT in modulating tumor growth. Cancer cells (HCT-116 Luc+, comprising a stably transfected luciferase gene) were injected subcutaneously (10^6 cells) into Balb C nude mice on both flanks on day 7 prior to treatment. Tumors were allowed to grow to palpable size from test day 0, defined as the start of a treatment regime. N3PT was injected ip (intraperitoneally) at a given regimen (e.g., 200 mg/kg/day) and tumor size monitored by luminance intensity from day 0-7, caliper measurement after day 7, and by weight at the end of study, after the animals were sacrificed. See, e.g., Wang and El-Deiry, Cancer Biol Ther. 2(2):196-202 (2003); Ray et al., Cancer Res. 63(6):1160-5 (2003); see also, e.g., U.S. Pat. Nos. 6,416,960; 6,596,257; and 6,217,847.

transketolase [1] = assay: transketolase activity in blood and tissues of N3PT-treated mice; assay type: in vivo, mouse; conditions: 200 mg/kg/day, relative to vehicle
Description: (§2) […] Blood samples were taken (40 μl whole blood) serially or from sacrificed animals at the end of a study. Tissues, including tumor, brain, heart, kidney, liver, lung, spleen, were taken and flash frozen in liquid nitrogen or on dry ice and stored at −80° C. until assay. Blood was diluted into lysis buffer and dissolved. Tissues were suspended in lysis buffer and homogenized with PowerGen 125 (Fisher Scientific) while being submerged in an ice-water bath.
(§3) Transketolase assays were performed as in Example 2. The lysate was used right away or flash frozen and stored at −80° C. until assay. The protein concentration in the lysate was determined using a Bradford assay (BioRad) with BSA as a standard. The enzymatic velocity was normalized to the total protein concentration for inter-sample comparisons. In order to obtain reliable results across samples, it was important to have similar starting protein concentrations (such as within 30%). This was achieved by weighing the tissue before lysis so that the suspensions contained similar tissue/ml lysis buffer for all samples.

transketolase [2] = target: T1, transketolase (Mus musculus, UniProt P40142); assay: as above; assay type: in vivo
T1 construct: from tissue; host or cells: whole blood, spleen, brain and other tissues of Balb C nude mice; also xenograft tumours
T1 sequence (P40142 1-623): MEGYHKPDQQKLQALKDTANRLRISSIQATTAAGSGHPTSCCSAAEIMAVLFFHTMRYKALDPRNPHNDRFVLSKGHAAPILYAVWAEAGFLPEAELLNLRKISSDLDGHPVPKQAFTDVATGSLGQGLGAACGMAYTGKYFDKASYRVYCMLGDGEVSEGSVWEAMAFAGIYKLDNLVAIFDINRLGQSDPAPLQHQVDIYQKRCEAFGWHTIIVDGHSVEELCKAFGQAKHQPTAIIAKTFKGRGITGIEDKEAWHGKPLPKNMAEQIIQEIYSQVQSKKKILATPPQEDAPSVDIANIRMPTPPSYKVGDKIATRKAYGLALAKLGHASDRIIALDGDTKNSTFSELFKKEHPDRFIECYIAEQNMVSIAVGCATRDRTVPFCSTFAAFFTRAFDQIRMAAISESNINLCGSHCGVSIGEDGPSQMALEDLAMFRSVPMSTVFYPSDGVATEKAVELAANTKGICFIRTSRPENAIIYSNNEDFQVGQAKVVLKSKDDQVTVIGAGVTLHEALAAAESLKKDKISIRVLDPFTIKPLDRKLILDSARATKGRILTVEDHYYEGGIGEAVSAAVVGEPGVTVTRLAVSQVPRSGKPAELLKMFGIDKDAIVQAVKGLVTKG
Description: as §2, §3

[3] = overall animal weight and major organ weight of treated mice; assay type: in vivo, mouse; conditions: 200 mg/kg/day
Description: as §1

transketolase activity in tumors (transketolase [1]): reduced
Compound: Cc1ccc(C[n+]2csc(CCO)c2C)c(N)n1 [N3PT, 3-[(2-amino-6-methyl-3-pyridinyl)methyl]-5-(2-hydroxyethyl)-4-methyl thiazolium]
growth of explant tumors (HCT-116 Luc+ tumors): inhibits growth of tumors in vivo; also recorded: inhibited the growth of explant tumors | transketolase activity in whole blood (transketolase [2]; 200 mg/kg/day, relative to vehicle): reduced; also recorded: selectively inhibited | sensitivity of spleen transketolase to N3PT on low-thiamine diet (transketolase [2]; diets with 16.5, 5, 1 or 0 mg/kg thiamine, N3PT ip, 12 hours later): enhances the sensitivity to N3PT inhibition of TK in spleen; also recorded: more sensitive to TK inhibition by N3PT | selectivity of transketolase inhibition in vivo versus kGDH and G6PDH (transketolase [2]; single dose 100 mg/kg body weight, mouse, 100 mg/kg): selective inhibitor of transketolase in vivo; also recorded: selectively inhibits transketolase | duration of transketolase inhibition in vivo (transketolase [2]; single dose 100 mg/kg i.p., blood and spleen, 0-120 hr, 100 mg/kg): potent and long-lasting transketolase inhibitor in vivo | overall animal weight ([3]; day 0, 6 and 11): no effect on overall animal weight; also recorded: did not affect | major organ weight (brain, heart, kidney, liver, lung, spleen) ([3]; day 11 post treatment): no effect on major organ weight; also recorded: did not affect
